Reference: publication PMC3645732, “A Differential Redox Regulation of the Pathways Metabolizing Glyceraldehyde-3-Phosphate Tunes the Production of Reducing Power in the Cytosol of Plant Cells” (International Journal of Molecular Sciences, 2013)

Experiments:
[1] = target: T1, np-Ga3PDHase (non-phosphorylating NADP+-dependent glyceraldehyde-3-phosphate dehydrogenase, EC 1.2.1.9) (Triticum aestivum, UniProt Q8LK61); assay: Kd from protection against H2O2 inactivation of purified enzyme (Mildvan and Leigh plot); assay type: biochemical
T1 construct: gene GAPN; recombinant wheat enzyme (NCBI DQ268762), pRSETB/TagapN, E. coli
T1 sequence (Q8LK61 1-496): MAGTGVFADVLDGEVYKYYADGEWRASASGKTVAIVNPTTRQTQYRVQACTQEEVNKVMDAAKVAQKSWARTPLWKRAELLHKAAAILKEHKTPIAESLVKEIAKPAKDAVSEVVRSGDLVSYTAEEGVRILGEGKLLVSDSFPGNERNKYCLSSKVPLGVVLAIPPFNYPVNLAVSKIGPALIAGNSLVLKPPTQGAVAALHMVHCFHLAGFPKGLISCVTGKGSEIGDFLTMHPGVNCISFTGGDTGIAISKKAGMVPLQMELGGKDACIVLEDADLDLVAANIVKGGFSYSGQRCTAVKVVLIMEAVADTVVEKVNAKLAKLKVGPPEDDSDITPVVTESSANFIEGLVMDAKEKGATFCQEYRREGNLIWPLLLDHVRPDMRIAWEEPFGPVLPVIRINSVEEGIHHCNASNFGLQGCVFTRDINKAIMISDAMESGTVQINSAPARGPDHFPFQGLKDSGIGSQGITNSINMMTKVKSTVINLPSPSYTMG

[2] = target: T2, Ga3PDHase (phosphorylating NAD+-dependent glyceraldehyde-3-phosphate dehydrogenase, EC 1.2.1.12) (Triticum aestivum, UniProt A5YVV3); assay: Kd from protection against H2O2 inactivation in presence of NAD+ (Mildvan and Leigh plot); S0.[…] by enzyme kinetics; assay type: biochemical
T2 construct: gene GAPC; recombinant wheat gapC (NCBI EF592180), homotetramer, E. coli
T2 sequence (A5YVV3 1-337): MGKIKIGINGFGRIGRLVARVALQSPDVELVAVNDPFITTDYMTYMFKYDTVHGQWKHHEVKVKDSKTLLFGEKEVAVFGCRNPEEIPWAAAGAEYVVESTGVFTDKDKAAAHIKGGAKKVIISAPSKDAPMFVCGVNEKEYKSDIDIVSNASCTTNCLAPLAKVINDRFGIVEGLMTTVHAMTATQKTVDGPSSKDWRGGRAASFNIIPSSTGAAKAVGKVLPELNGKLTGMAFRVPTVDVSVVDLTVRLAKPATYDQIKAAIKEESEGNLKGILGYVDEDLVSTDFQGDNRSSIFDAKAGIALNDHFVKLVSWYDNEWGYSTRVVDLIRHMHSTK

Kd [1] | Kd [2] | SMILES
2.5 µM |  | NC(=O)c1ccc[n+]([C@@H]2O[C@H](COP(=O)([O-])OP(=O)(O)OC[C@H]3O[C@@H](n4cnc5c(N)ncnc54)[C@H](OP(=O)(O)O)[C@@H]3O)[C@@H](O)[C@H]2O)c1 [NADP^+]
 | 115 µM | O=C[C@H](O)COP(=O)(O)O [glyceraldehyde-3-phosphate]
